Test results published in patent publication US20130096160A1, “ARYLTHIAZOLYL PIPERIDINES AND RELATED COMPOUNDS AS MODULATORS OF SURVIVAL MOTOR NEURON (SMN) PROTEIN PRODUCTION” (Secretary, Department of Health and Human Services, priority 2010, published 2013).

Assays:
[1] = mouse, microsomes, 1 h, 1 μM, pH 7.4
Procedure: The test agent is incubated at 1 μM in duplicate with mouse microsomes at 37° C. for 60 min. The reaction contains 0.3 mg/mL microsomal protein in 100 mM potassium phosphate, 2 mM NADPH, 3 mM MgCl2, pH 7.4. A control is run for each test agent omitting NADPH to detect NADPH-free degradation. At indicated times, an aliquot is removed from each experimental and control reaction and mixed with an equal volume of ice-cold Stop Solution (0.3% acetic acid in acetonitrile containing haloperidol, diclofenac, or other internal standard). Stopped reactions are incubated at least ten minutes at −20° C., and an additional volume of water is added.
The samples are centrifuged to remove precipitated protein, and the supernatants are analyzed by LC/MS/MS, as described above, to quantitate the remaining parent. Data are reported as % remaining by dividing by the time zero concentration value.

[2] = test system: SMN2-luciferase reporter; assay: SMN2-luciferase reporter qHTS assay; type: cell-based, human; set-up: key to Curve Class: A curve class of 1.1 is a full agonist/antagonist; a curve class of 4 indicates the compound is inactive; details: for Curve Class: agonist/antagonist character of the concentration-response, lower values = more significant concentration-response; for Increased SMN2 activity: percent increase (or decrease) in SMN2 levels compared to control in which no test compound is added
Outline: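 SMN2 exon-7 splicing firefly-luciferase reporter cell line, ~2000 cells/well in phenol-red-free DMEM with 10% serum, allowed to adhere 10–12 h, then exposed to compounds for 2 days at 37 C, 5% CO2. Seven-point five-fold dilution series (e.g. 50 μM to 3.2 nM), OneGlo luminescence read, curves fitted to Hill equation.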

[3] = test system: human SMN protein; assay: Western blot of SMN protein in SMA patient fibroblasts (3813); type: cell-based; details: 3813 fibroblasts, quantitative western blotting, FIG. 4; for SMN protein level versus dose (in words): different doses
Procedure: Type I spinal muscular atrophy (SMA)-affected human primary fibroblasts (#GM03813) and carrier parents (#GM03814, parent and #GM03815, […]) are obtained live with low passage number from Coriell Cell Repositories. […] For detection of SMN protein in patient fibroblasts, 8,000 cells per cm^2 are plated 24 hours prior to drug addition. Fresh media and compound are added every 24 hours. After 72 hours, cells are harvested, washed with cold PBS, and lysed. Samples are subjected to polyacrylamide gel electrophoresis (PAGE). It is determined that 10 μg total protein per lane is within the linear range for immunoblot detection of SMN and alpha-tubulin. Western blots of the gel are probed for SMN with the 4B7 mouse monoclonal antibody (from the lab of Christian Lorson). A goat anti-mouse antibody (Santa Cruz Biotechnology/#sc-2005) conjugated to horseradish peroxidase (HRP) is used as the secondary antibody. Quantification of protein is performed by detecting chemiluminescence with a Fujifilm LAS-4000 Multifunctional Imaging System. […] We incubated a fibroblast cell line from a type I SMA patient (3813 cell line) with different doses of analogues and assessed the SMN protein level by quantitative western blotting (FIG. 4). We observed that analogue 8 m at concentration of 37 nanomolar increased the SMN protein level by 2-3 fold. […] This could be due with the intrinsic mechanism of action or to other causes, such us concentration dependent compound solubility.

[4] = test system: SMN positive foci or gems in the nucleus; assay: Gem count in human type I SMA fibroblasts; type: cell-based; details: 3 days, FIG. 5; for number of gems versus dose (in words): 37 nM-3000 nM
From the text: Furthermore, the increase in SMN protein production led us to explore whether the arylpiperidine analogues had effect of on the overall number of SMN positive foci or gems in the nucleus. This would corroborate that the increased protein amounts represent indeed functional SMN protein. SMN protein is predominately a cytoplasmic protein in the nucleous SMN which localized to in distinct punctuate bodies often referred to as gems (gemini of coiled [Cajal] bodies). There is a direct correlation between the number of gems and total SMN protein production in the cell. Gem counts are commonly used as another metric to score the amount total SMN protein expressed on a cell-to-cell basis. […] Only 3.3% of nuclei have gems in fibroblast cells from SMA type I patients (cell line 3813), while 24.8% of nuclei have gems in fibroblast from a carrier parent (3814 cell line). We treated human type I SMA fibroblasts with increasing doses (37 nM 3000 nM) of arylpiperidine analogues 8a, 8m, and 9a for 3 days and the number of gems per 100 nuclei were examined (FIG. 5). Analogue 8m treatment yielded more than 2 fold of increase of the number of the gems at low 37 nM dose.

[5] = in vitro; type: in vitro ADME; details: human, Caco-2
Procedure: CaCo-2 cells grown in tissue culture flasks are trypsinized, suspended in medium, and the suspensions are applied to wells of a collagen-coated BioCoat Cell Environment in 24-well format (BD Biosciences) at 24,500 cells per well. The cells are allowed to grow and differentiate for three weeks, feeding at 2-day intervals.
For Apical to Basolateral (A->B) permeability, the test agent is added at 50 μM to the apical (A) side and amount of permeation is determined on the basolateral (B) side; for Basolateral to Apical (B>A) permeability, the test agent is added at 50 μM to the B side and the amount of permeation is determine on the A side. The A-side buffer contains 100 μM Lucifer yellow dye, in Transport Buffer (1.98 g/L glucose in 10 mM HEPES, 1× Hank's Balanced Salt Solution) pH 6.5, and the B-side buffer is Transport Buffer, pH 7.4. CaCo-2 cells are incubated with these buffers for 2 h., and the receiver side buffer is removed for analysis by liquid chromatography-mass spectrometry (LC/MS/MS).
Additionally, several control compounds are tested in the identical assay.
To verify that CaCo-2 cell monolayers are properly formed, aliquots of the cell buffers are analyzed by fluorescence to determine the transport of the impermeable dye Lucifer Yellow.
Data are expressed as permeability (Papp): […]
where dQ/dt is the rate of permeation, C0 is the initial concentration of test agent, and A is the area of the monolayer.
In bidirectional permeability studies, the asymmetry index (AI) or efflux ratio is also calculated:
An AI>1 indicated a potential substrate for PGP or other active transporters.
Samples are analyzed by LC/MS/MS using either an Agilent 6410 mass spectrometer coupled with an Agilent 1200 high performance liquid chromatography (HPLC) and a CTC PAL chilled autosampler, all controlled by MassHunter software (Agilent), or an ABI2000 mass spectrometer coupled with an Agilent 1100 HPLC and a CTC PAL chilled autosampler, all controlled by Analyst software (ABI). After separation on a C18 reverse phase HPLC column (Agilent, Waters, or equivalent) using an acetonitrile-water gradient system, peaks are analyzed by mass spectrometry (MS) using electrospray ionization (ESI) in multiple reaction monitoring (MRM) mode.
The signal is optimized for each compound by ESI positive or negative ionization mode. A MS2 selected ion monitoring (SIM) scan is used to optimize the precursor ion and a product ion analysis is used to identify the best fragment for analysis and to optimize the collision energy.

SMILES | Curve Class [2] | Increased SMN2 activity [2] [%] | SMN protein level versus dose (in words) [3] | number of gems versus dose (in words) [4] | further results
CN(C)c1cccc(-c2csc(N3CCC(C(N)=O)CC3)n2)c1 [Example 63, 1-(4-(3-(Dimethylamino)Phenyl)Thiazol-2-yl)Piperidine-4-Carboxamide] | 1.1 | 504 |  |  | Minus NADPH Parent remaining 1st [1]: 69%; Minus NADPH Parent remaining 2nd [1]: 66%; Minus NADPH Parent remaining mean [1]: 67%; Plus NADPH Parent remaining 1st [1]: 0%; Plus NADPH Parent remaining 2nd [1]: 0%; Plus NADPH Parent remaining mean [1]: 0%
O=C(O)C1CCN(c2nc(-c3ccc(Br)cc3)cs2)CC1 [Example 69, 1-(4-(4-Bromophenyl)Thiazol-2-yl)Piperidine-4-Carboxylic Acid] | 1.1 | 554.58 |  |  | Minus NADPH Parent remaining 1st [1]: 90%; Minus NADPH Parent remaining 2nd [1]: 101%; Minus NADPH Parent remaining mean [1]: 95%; Plus NADPH Parent remaining 1st [1]: 76%; Plus NADPH Parent remaining 2nd [1]: 85%; Plus NADPH Parent remaining mean [1]: 81%
Cc1ccc(-c2cnc(N3CCC(C(N)=O)CC3)s2)cc1 [Example 119, 1-(5-P-Tolylthiazol-2-yl)Piperidine-4-Carboxamide] | 1.1 | 609.4 | up-regulation of SMN protein at concentrations ranging between 37 nM and 333 nM |  | 
CC(C)Oc1cccc(-c2cnc(N3CCC(C(N)=O)CC3)s2)c1 [Example 123, 1-(5-(3-Isopropoxyphenyl)Thiazol-2-yl)Piperidine-4-Carboxamide] | 1.1 | 709.6 | up-regulation of SMN protein at concentrations ranging between 37 nM and 333 nM |  | 
NC(=O)C1CCN(c2ncc(-c3ccc4c(c3)OCCCO4)s2)CC1 [Example 124, 1-(5-(3,4-Dihydro-2H-Benzo[B][1,4] Dioxepin-7-yl)Thiazol-2-yl)Piperidine-4-Carboxamide] | 1.1 | 370.5 |  | didn't show any activity | 
CSc1ccc(-c2cnc(N3CCC(C(N)=O)CC3)s2)cc1 [Example 134, 1-(5-(4-(Methylthio)Phenyl)Thiazol-2-yl)Piperidine-4-Carboxamide] | 1.1 | 576.1 | decreased with the increasing of the drug concentration | With the concentration increased, the numbers of gems was reduced | increase of the number of the gems ([4]; 37 nM): more than 2 fold; increase of SMN protein level ([3]; 37 nanomolar): 2-3 fold
O=C(O)C1CCN(c2ncc(-c3ccc4c(c3)OCCCO4)s2)CC1 [Example 148, 1-(5-(3,4-Dihydro-2H-Benzo[B][1,4]Dioxepin-7-yl)Thiazol-2-yl)Piperidine-4-Carboxylic Acid] | 1.1 | 325.6 | dose-dependent trend between 37 nM to 1 μM concentration and a decrease of protein level at 3 μM | slightly decreased at 3000 nM | increase of the gem numbers ([4]; 37 nM to 1000 nM): 80%
O=C(Nc1ccccc1)C1CCN(c2ncc(-c3ccc4c(c3)OCCCO4)s2)CC1 [Example 151, 1-(5-(3,4-Dihydro-2H-Benzo[B][1,4]Dioxepin-7-yl)Thiazol-2-yl)-N-Phenylpiperidine-4-Carboxamide] | 1.1 | 353 | up-regulation of SMN protein at concentrations ranging between 37 nM and 333 nM |  | 
CNC(=C[N+](=O)[O-])NCCSCc1ccc(CN(C)C)o1 [Ranitidine, ranitidine, reference compound] |  |  |  |  | Papp A→B at 2 h, 10 μM [5]: 0.42 ×10⁻⁶ cm/s
CC(=O)CC(c1ccccc1)c1c(O)c2ccccc2oc1=O (stereo not drawn) [Warfarin, reference compound] |  |  |  |  | Papp A→B at 2 h, 10 μM [5]: 45.8 ×10⁻⁶ cm/s; Papp B→A at 2 h, 10 μM [5]: 11.7 ×10⁻⁶ cm/s
